# Test results published in PubChem BioAssay (NCI).
#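 Interpolation was linear, between the two tested concentrations surrounding the appropriate level; five concentrations were tested over 48 hours in 96-well plates. TGI: concentration producing complete growth inhibition.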
# What was measured:
# Assay in all cases: growth of human tumour cells (NCI), 48 h
# UACC-257 melanoma = tested on: UACC-257 melanoma
# SNB-19 CNS = tested on: SNB-19 CNS
# SK-OV-3 ovarian = tested on: SK-OV-3 ovarian
# NCI/ADR-RES ovarian = tested on: NCI/ADR-RES ovarian
# 786-0 renal = tested on: 786-0 renal
# RXF 393 renal = tested on: RXF 393 renal
# M14 melanoma = tested on: M14 melanoma
# HT29 colon = tested on: HT29 colon
# T-47D breast = tested on: T-47D breast
# HCT-15 colon = tested on: HCT-15 colon
SMILES,TGI (UACC-257 melanoma),TGI (SNB-19 CNS),TGI (SK-OV-3 ovarian),TGI (NCI/ADR-RES ovarian),TGI (786-0 renal),TGI (RXF 393 renal),TGI (M14 melanoma),TGI (HT29 colon),TGI (T-47D breast),TGI (HCT-15 colon)
COc1ccc2nc3n(c2c1)CCc1cc(OC)c(OC)cc1-3,> 100 µM,> 100 µM,> 100 µM,> 100 µM,> 100 µM,> 100 µM,> 100 µM,95.8 µM,> 100 µM,> 100 µM
NCCC1CN(C(=O)OCc2ccccc2)c2ccccc21 (centres undefined),37.8 µM,> 51.3 µM,> 59.6 µM,36.7 µM,29.8 µM,32.3 µM,27.4 µM,25.8 µM,28 µM,14.5 µM
COC(=O)C1=C(O)C(C(=O)OC)[C@]2(O)[C@H](C(=O)OC)[C@H]1C[C@@H](c1ccc([N+](=O)[O-])cc1)[C@H]2C(=O)OC (some centres undefined),> 100 µM,65.5 µM,> 100 µM,51.8 µM,31 µM,32.4 µM,44.5 µM,55.6 µM,> 100 µM,38.6 µM
CCN(CC)c1nc(N(C)C)c2ccccc2n1,> 100 µM,> 100 µM,> 100 µM,> 100 µM,> 100 µM,76.6 µM,72.1 µM,> 100 µM,> 100 µM,> 100 µM
COC(=O)c1c(C)nc(C)c(NO)c1-c1ccccc1C(F)(F)F,42.8 µM,> 100 µM,> 100 µM,38.4 µM,30.2 µM,32 µM,39.5 µM,33.7 µM,66.1 µM,32.3 µM
N/C(=N\Nc1ccc(S(N)(=O)=O)cc1)c1cnccn1,> 100 µM,> 100 µM,> 100 µM,> 100 µM,> 100 µM,> 100 µM,> 100 µM,> 100 µM,> 100 µM,> 100 µM
C(/Cc1ccc2c(c1)OCO2)=N\NC1=NCCCN1,> 100 µM,> 100 µM,> 100 µM,> 100 µM,> 100 µM,> 100 µM,> 100 µM,> 100 µM,> 100 µM,> 100 µM
CC(C)(C)OC(=O)n1cc(C2CN(O)C(=O)C23CCC(=O)N3Cc2ccccc2)c2ccccc21 (centres undefined),> 100 µM,> 100 µM,66.5 µM,> 100 µM,> 100 µM,> 100 µM,> 100 µM,> 100 µM,> 100 µM,
NS(=O)(=O)c1ccc(NNc2c3ccccc3nc3c(C(=O)Nc4ccc(S(=O)(=O)Nc5ncccn5)cc4)cccc23)cc1,> 25 µM,> 25 µM,> 25 µM,> 25 µM,> 25 µM,> 25 µM,> 25 µM,> 25 µM,> 25 µM,> 25 µM
CCOC(=O)c1cnccc1CC1(C#N)c2ccccc2C=CN1C(=O)c1ccccc1 (centres undefined),> 100 µM,> 100 µM,> 100 µM,> 100 µM,> 100 µM,> 100 µM,79.1 µM,36 µM,> 100 µM,> 100 µM
CCOC(=O)C1CCCCN1CCc1c[nH]c2ccccc12 (centres undefined),> 100 µM,> 100 µM,> 100 µM,> 100 µM,> 100 µM,> 100 µM,> 100 µM,> 100 µM,97.1 µM,> 100 µM
N#Cc1nc(C#N)n(C(=O)c2ccccc2)c1NC(=O)c1ccccc1,> 100 µM,> 100 µM,> 100 µM,> 100 µM,> 100 µM,> 100 µM,> 100 µM,> 100 µM,> 100 µM,> 100 µM
NC1=NCC(CN2CCCC2)O1 (centres undefined),> 100 µM,> 100 µM,> 100 µM,> 100 µM,> 100 µM,> 100 µM,> 100 µM,> 100 µM,> 100 µM,> 100 µM
Cc1ccc(S(=O)(=O)N(CC(O)COc2ccccc2)c2ccc(F)cc2F)cc1 (centres undefined),33.3 µM,41.9 µM,41.6 µM,33.3 µM,31 µM,27 µM,34.1 µM,29.4 µM,46.4 µM,30.8 µM
O=C1CC(n2cccc2)c2c(Br)sc(Br)c21 (centres undefined),30.9 µM,28.1 µM,35.2 µM,69.6 µM,43.8 µM,43.4 µM,30.2 µM,32.1 µM,46.3 µM,30.7 µM
